Results reported in ChEMBL document CHEMBL1201862, “PubChem BioAssay data set” (2004).
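Dose response: 5 concentrations. Exposure: 48 h. Format: 96-well plates. Endpoint: linear interpolation; highest concentration if not reached. Abbreviation: GI50, concentration required for 50% inhibition of growth.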 Active and inactive are the calls of the source. No stated cut-off is given here; in the data, active = GI50 up to about 1.1 µM and inactive = higher. Where a SMILES comes first, the peptide text is derived from it. The star is where a group is joined. Boc = CC(C)(C)OC(=O)*; OSu = O=C1CCC(=O)N1O*

How the values were obtained:
Experiment in all cases: NCI tumour cell line growth inhibition, 48 h
A498 = system: A498
ACHN = system: ACHN
BT-549 = system: BT-549
EKVX = system: EKVX
HCT-116 = system: HCT-116
HOP-62 = system: HOP-62
HT-29 = system: HT-29
Hs-578T = system: Hs-578T
MCF7 = system: MCF7
MDA-N = system: MDA-N
NCI-H23 = system: NCI-H23
OVCAR-3 = system: OVCAR-3
OVCAR-5 = system: OVCAR-5
RXF 393 = system: RXF 393
SF-268 = system: SF-268
T47D = system: T47D
U-251 = system: U-251
SNB-75 = system: SNB-75
SR = system: SR

SMILES | GI50 (A498) | GI50 (ACHN) | GI50 (BT-549) | GI50 (EKVX) | GI50 (HCT-116) | GI50 (HOP-62) | GI50 (HT-29) | GI50 (Hs-578T) | GI50 (MCF7) | GI50 (MDA-N) | GI50 (NCI-H23) | GI50 (OVCAR-3) | GI50 (OVCAR-5) | GI50 (RXF 393) | GI50 (SF-268) | GI50 (T47D) | GI50 (U-251) | GI50 (SNB-75) | GI50 (SR)
Cc1[nH]c(C)c(CN(C)C)c1CN(C)C | > 100 µM (inactive) | > 100 µM (inactive) | > 100 µM (inactive) | > 100 µM (inactive) | > 100 µM (inactive) | > 100 µM (inactive) | > 100 µM (inactive) | > 100 µM (inactive) | > 100 µM (inactive) | > 100 µM (inactive) | > 100 µM (inactive) | > 100 µM (inactive) | > 100 µM (inactive) | > 100 µM (inactive) | > 100 µM (inactive) | > 100 µM (inactive) | > 100 µM (inactive) | – | –
COc1ccc2c(c1)C(N)=C(Cc1ccncc1)C2=O | > 100 µM (inactive) | > 100 µM (inactive) | > 100 µM (inactive) | 53.5 µM (inactive) | > 100 µM (inactive) | > 100 µM (inactive) | > 100 µM (inactive) | > 100 µM (inactive) | 82.4 µM (inactive) | > 100 µM (inactive) | > 100 µM (inactive) | > 100 µM (inactive) | – | > 100 µM (inactive) | > 100 µM (inactive) | 55.2 µM (inactive) | > 100 µM (inactive) | 28.4 µM (inactive) | –
COc1c2c(cc3oc(=O)ccc13)OC(C)(C)C=C2 [XANTHOXYLETIN] | – | 27.9 µM (inactive) | 25.6 µM (inactive) | 37.9 µM (inactive) | 18.6 µM (inactive) | 34.9 µM (inactive) | 35.8 µM (inactive) | 29.9 µM (inactive) | 25.4 µM (inactive) | 29.4 µM (inactive) | 23.6 µM (inactive) | 37.9 µM (inactive) | – | – | 41.9 µM (inactive) | 1.48 µM (inactive) | 24.9 µM (inactive) | 22 µM (inactive) | 11.5 µM (inactive)
CCCC(CCC(=O)O)(CCC(=O)O)[N+](=O)[O-] | – | > 100 µM (inactive) | > 100 µM (inactive) | > 100 µM (inactive) | > 100 µM (inactive) | – | > 100 µM (inactive) | > 100 µM (inactive) | > 100 µM (inactive) | > 100 µM (inactive) | > 100 µM (inactive) | – | > 100 µM (inactive) | > 100 µM (inactive) | > 100 µM (inactive) | > 100 µM (inactive) | > 100 µM (inactive) | > 100 µM (inactive) | > 100 µM (inactive)
Cc1nn(C(=O)c2ccc(Cl)cc2)c2c1C(c1ccccc1[N+](=O)[O-])SC(=N)N2 (stereo unspecified) | – | > 10 µM (inactive) | > 10 µM (inactive) | > 10 µM (inactive) | > 10 µM (inactive) | > 10 µM (inactive) | > 10 µM (inactive) | > 10 µM (inactive) | > 10 µM (inactive) | > 10 µM (inactive) | > 10 µM (inactive) | > 10 µM (inactive) | > 10 µM (inactive) | 0.569 µM (active) | > 10 µM (inactive) | > 10 µM (inactive) | > 10 µM (inactive) | > 10 µM (inactive) | > 10 µM (inactive)
CC(NC(=O)C(NC(=O)OC(C)(C)C)C(C)C)C(=O)NCC(=O)ON1C(=O)CCC1=O (stereo not drawn) (Boc-Val-Ala-Gly-OSu; configuration not given here) | – | > 100 µM (inactive) | > 100 µM (inactive) | > 100 µM (inactive) | > 100 µM (inactive) | > 100 µM (inactive) | > 100 µM (inactive) | > 10 µM (inactive) | > 100 µM (inactive) | > 100 µM (inactive) | > 100 µM (inactive) | > 100 µM (inactive) | > 100 µM (inactive) | > 100 µM (inactive) | > 100 µM (inactive) | > 100 µM (inactive) | > 100 µM (inactive) | > 100 µM (inactive) | > 100 µM (inactive)
CSc1ccc(/C=C2\N=C(c3ccccc3)N(c3nc4cc(C)c(C)cc4s3)C2=O)cc1 | – | 24.9 µM (inactive) | 28.2 µM (inactive) | 24.9 µM (inactive) | 18.3 µM (inactive) | 23.6 µM (inactive) | 22.2 µM (inactive) | 28.4 µM (inactive) | 15.3 µM (inactive) | 13.6 µM (inactive) | – | 22.8 µM (inactive) | 26.2 µM (inactive) | 25 µM (inactive) | 34.8 µM (inactive) | 44.8 µM (inactive) | 19.2 µM (inactive) | 28.8 µM (inactive) | 25 µM (inactive)
CN1CCc2cc(N)cc3c2C1Cc1ccc(O)c(O)c1-3 (stereo unspecified) | 57.7 µM (inactive) | 25.8 µM (inactive) | 58.2 µM (inactive) | 43.6 µM (inactive) | 32.2 µM (inactive) | 49.3 µM (inactive) | 34.4 µM (inactive) | 53.5 µM (inactive) | – | 34.7 µM (inactive) | 46.8 µM (inactive) | 27.4 µM (inactive) | 85.1 µM (inactive) | 55.7 µM (inactive) | 6.43 µM (inactive) | 61.8 µM (inactive) | 39.5 µM (inactive) | 40.9 µM (inactive) | 28.4 µM (inactive)
Cc1ccsc1/C=N/Nc1ncccn1 | > 100 µM (inactive) | > 100 µM (inactive) | > 100 µM (inactive) | > 100 µM (inactive) | > 100 µM (inactive) | > 100 µM (inactive) | > 100 µM (inactive) | > 100 µM (inactive) | 0.741 µM (active) | > 100 µM (inactive) | > 100 µM (inactive) | > 100 µM (inactive) | > 100 µM (inactive) | > 100 µM (inactive) | > 100 µM (inactive) | > 100 µM (inactive) | > 100 µM (inactive) | > 100 µM (inactive) | –
O=c1ccn(C2OC(CN(O)CCC3C(CO)OC(n4ccc(=O)[nH]c4=O)C3O)C(O)C2O)c(=O)[nH]1 (stereo unspecified) | > 100 µM (inactive) | > 100 µM (inactive) | > 100 µM (inactive) | > 100 µM (inactive) | > 100 µM (inactive) | > 100 µM (inactive) | > 100 µM (inactive) | > 100 µM (inactive) | > 100 µM (inactive) | > 100 µM (inactive) | > 100 µM (inactive) | > 100 µM (inactive) | > 100 µM (inactive) | > 100 µM (inactive) | > 100 µM (inactive) | > 100 µM (inactive) | > 100 µM (inactive) | > 100 µM (inactive) | –
OCCNc1ncnc2[nH]cnc12 | > 100 µM (inactive) | > 100 µM (inactive) | > 100 µM (inactive) | > 100 µM (inactive) | > 100 µM (inactive) | > 100 µM (inactive) | > 100 µM (inactive) | > 100 µM (inactive) | > 100 µM (inactive) | > 100 µM (inactive) | > 100 µM (inactive) | > 100 µM (inactive) | > 100 µM (inactive) | > 100 µM (inactive) | > 100 µM (inactive) | > 100 µM (inactive) | > 100 µM (inactive) | 0.296 µM (active) | –
